Assay results published in paper PMC9516332 (Frontiers in Oncology, 2022).
Where two headings read alike, the source gives them in different places.

Legend:
Test in all cases: Kinase panel profiling at 1 µmol/L (MSA or IMAP), percentage inhibition
Format in all cases: biochemical
[1] = target: panel of 255 wild-type kinases (Homo sapiens, UniProt O94804); settings: read-out: %-inhibition at 1 µmol/L, LOK
[2] = target: panel of 255 wild-type kinases (Homo sapiens, UniProt P19525); settings: read-out: %-inhibition at 1 µmol/L, PKR
[3] = target: panel of 255 wild-type kinases (Homo sapiens, UniProt O96013); settings: read-out: %-inhibition, PAK4
[4] = target: panel of 255 wild-type kinases (Homo sapiens, UniProt P49841); settings: kinase GSK3β; 1 µmol/L single concentration
[5] = target: panel of 255 wild-type kinases (Homo sapiens, UniProt Q9Y2H1); settings: read-out: %-inhibition, NDR2
[6] = target: panel of 255 wild-type kinases (Homo sapiens, UniProt P11309); settings: read-out: %-inhibition at 1 µmol/L, PIM1
[7] = target: panel of 255 wild-type kinases (Homo sapiens, UniProt Q00535); settings: read-out: %-inhibition CDK5/p25
[8] = target: panel of 255 wild-type kinases (Homo sapiens, UniProt P53350); settings: read-out: %-inhibition at 1 µmol/L, PLK1
[9] = target: panel of 255 wild-type kinases (Homo sapiens, UniProt P53355); settings: read-out: %-inhibition at 1 µmol/L, DAPK1
[10] = target: panel of 255 wild-type kinases (Homo sapiens, UniProt P06241); settings: read-out: %-inhibition at 1 µmol/L, FYN [isoform a]
[11] = target: T1, panel of 255 wild-type kinases (Homo sapiens, UniProt Q92630); settings: read-out: %-inhibition at 1 µmol/L, DYRK2
T1 sequence (Q92630 1-601): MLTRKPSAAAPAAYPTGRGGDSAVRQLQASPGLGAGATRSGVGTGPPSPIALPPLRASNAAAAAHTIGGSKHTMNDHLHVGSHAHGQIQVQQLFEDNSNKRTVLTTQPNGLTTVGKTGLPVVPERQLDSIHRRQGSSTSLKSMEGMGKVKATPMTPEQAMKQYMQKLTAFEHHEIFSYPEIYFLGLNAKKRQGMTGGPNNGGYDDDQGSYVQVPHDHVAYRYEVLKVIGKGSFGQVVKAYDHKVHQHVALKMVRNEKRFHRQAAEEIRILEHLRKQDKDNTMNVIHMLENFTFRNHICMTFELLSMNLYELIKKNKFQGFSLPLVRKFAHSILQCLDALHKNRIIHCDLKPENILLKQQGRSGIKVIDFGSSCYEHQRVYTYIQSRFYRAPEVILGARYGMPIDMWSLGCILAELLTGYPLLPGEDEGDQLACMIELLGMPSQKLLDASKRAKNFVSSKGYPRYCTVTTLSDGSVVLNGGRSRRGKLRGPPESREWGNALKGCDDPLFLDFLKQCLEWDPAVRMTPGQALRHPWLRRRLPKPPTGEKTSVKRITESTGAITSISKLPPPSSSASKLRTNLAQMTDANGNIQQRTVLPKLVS

[12] = target: T2, panel of 255 wild-type kinases (Homo sapiens, UniProt O14965)
T2 sequence (O14965 1-403): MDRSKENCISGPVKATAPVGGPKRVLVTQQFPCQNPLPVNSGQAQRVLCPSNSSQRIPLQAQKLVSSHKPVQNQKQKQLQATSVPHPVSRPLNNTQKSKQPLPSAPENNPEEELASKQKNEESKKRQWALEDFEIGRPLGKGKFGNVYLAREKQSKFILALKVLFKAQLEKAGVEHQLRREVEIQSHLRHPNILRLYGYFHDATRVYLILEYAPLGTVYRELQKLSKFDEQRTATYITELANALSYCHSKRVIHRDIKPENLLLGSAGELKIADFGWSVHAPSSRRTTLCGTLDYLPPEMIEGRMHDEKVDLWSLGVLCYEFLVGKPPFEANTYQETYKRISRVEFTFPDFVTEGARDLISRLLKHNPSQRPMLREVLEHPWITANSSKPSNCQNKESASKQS

[13] = target: panel of 255 wild-type kinases (Homo sapiens, UniProt Q5VT25); settings: read-out: %-inhibition, MRCKα
[14] = target: panel of 255 wild-type kinases (Homo sapiens, UniProt P51957); settings: read-out: %-inhibition, NEK4
[15] = target: panel of 255 wild-type kinases (Homo sapiens, UniProt Q16816); settings: read-out: %-inhibition at 1 µmol/L, PHKG1
[16] = target: panel of 255 wild-type kinases (Homo sapiens, UniProt P57059); settings: read-out: %-inhibition at 1 µmol/L, SIK
[17] = target: panel of 255 wild-type kinases (Homo sapiens, UniProt P78368); settings: read-out: %-inhibition at 1 µmol/L, CK1γ2
[18] = target: panel of 255 wild-type kinases (Homo sapiens, UniProt P42685); settings: read-out: %-inhibition at 1 µmol/L, FRK
[19] = kinase LOK, 1 µmol/L single concentration
[20] = kinase PKR, 1 µmol/L single concentration
[21] = PAK4, 1 µmol/L single concentration
[22] = NDR2, 1 µmol/L single concentration
[23] = kinase PIM1, 1 µmol/L single concentration
[24] = CDK5/p25 kinase assay, 1 µmol/L single concentration
[25] = kinase PLK1, 1 µmol/L single concentration
[26] = kinase DAPK1, 1 µmol/L single concentration
[27] = kinase FYN [isoform a], 1 µmol/L single concentration
[28] = kinase DYRK2, 1 µmol/L single concentration
[29] = AurA kinase assay, 1 µmol/L single concentration, read-out: %-inhibition AurA
[30] = AurA/TPX2 kinase assay, 1 µmol/L single concentration, read-out: %-inhibition AurA/TPX2
[31] = MRCKα, 1 µmol/L single concentration
[32] = NEK4, 1 µmol/L single concentration
[33] = kinase PHKG1, 1 µmol/L single concentration
[34] = kinase SIK, 1 µmol/L single concentration
[35] = kinase CK1γ2, 1 µmol/L single concentration
[36] = kinase FRK, 1 µmol/L single concentration

SMILES	inhibition at 1 µM [1, 19]	inhibition at 1 µM [2, 20]	inhibition at 1 µM [3, 21]	inhibition at 1 µM [4]	inhibition at 1 µM [5, 22]	inhibition at 1 µM [6, 23]	inhibition at 1 µM [7, 24]	inhibition at 1 µM [8, 25]	inhibition at 1 µM [9, 26]	inhibition at 1 µM [10, 27]	inhibition at 1 µM [11, 28]	inhibition at 1 µM [12, 29]	inhibition at 1 µM [12, 30]	inhibition at 1 µM [13, 31]	inhibition at 1 µM [14, 32]	inhibition at 1 µM [15, 33]	inhibition at 1 µM [16, 34]	inhibition at 1 µM [17, 35]	inhibition at 1 µM [18, 36]	also measured
CO[C@]1(C(=O)N[C@@H](C)c2ccc(-n3cc(F)cn3)nc2)CC[C@H](c2nc(C)cc(Nc3cc(C)[nH]n3)n2)CC1 [pralsetinib]	13%	8%	66%	51%	0.23%	-1.53%	43%	-2.47%	53%	82%	-0.768%	73%	70%	1.82%	2.56%	1.67%	1.69%	-13%	82%	
C=CC(=O)N1CCC([C@@H]2CCNc3c(C(N)=O)c(-c4ccc(Oc5ccccc5)cc4)nn32)CC1 [zanubrutinib]	5%	-1.41%	-11%	-9%	0.505%	-11%	-17%	-0.741%	-2%		13%	-1.42%	-0.885%	-0.931%	1%	2.38%	-2%	-7%	82%	
CN1CCN(c2ccc(C(=O)Nc3n[nH]c4ccc(Cc5cc(F)cc(F)c5)cc34)c(NC3CCOCC3)c2)CC1 [entrectinib]	28%	3.49%		-1.6%	51%	-6%		0.212%	16%	96%	11%	81%	75%	-3.42%	1.25%	54%	7.49%	0.857%	96%	
COC(=O)N[C@@H](C)CNc1nccc(-c2cn(C(C)C)nc2-c2cc(Cl)cc(NS(C)(=O)=O)c2F)n1 [encorafenib]	1.24%		-2.13%	92%	5%	10%	-17%	-2.56%	-1%	6%	11%	0.211%	-3.31%	0.0684%	4.44%	3%	2.23%	31%	8%	
C[C@H]1Oc2cc(cnc2N)-c2c(nn(C)c2C#N)CN(C)C(=O)c2ccc(F)cc21 [lorlatinib]	87%	0.666%	1.84%	-4.7%	2.18%	8%	-9%	2.12%	6.55%	15%	4.35%	21%	29%	-6%	-0.571%	65%	-1.87%	2.14%		
CCN1CCN(c2ccc(Nc3cc(N(C)C(=O)Nc4c(Cl)c(OC)cc(OC)c4Cl)ncn3)cc2)CC1 [infigratinib]	34%	76%	6%	-9%	-3.19%	-2.33%	-17%	0.613%	-3%	40%	-3.43%	-5.38%	-10%	0.933%	13%	0.355%	30%	-12%		
CCc1nc(C(N)=O)c(Nc2ccc(N3CCC(N4CCN(C)CC4)CC3)c(OC)c2)nc1NC1CCOCC1 [gilteritinib]	100%		74%	4%	66%	6%	25%	7.52%	71%	84%	39%	80%	71%	12%	50%	92%	59%	6.55%	95%	
CNC(=O)c1ccc(-c2cnc3ncc(Cc4ccc5ncccc5c4)n3n2)cc1F [capmatinib]																				inhibition at 1 µM [1]: 0.859%; inhibition at 1 µM [2]: 7%; inhibition at 1 µM [3]: 1%; inhibition at 1 µM [5]: -5.51%; inhibition at 1 µM [6]: -9%; inhibition at 1 µM [7]: -20%; inhibition at 1 µM [8]: -5%; inhibition at 1 µM [9]: -2.82%; inhibition at 1 µM [10]: -2%; inhibition at 1 µM [11]: 8%; inhibition at 1 µM ([12]; read-out: %-inhibition AurA): 3.78%; inhibition at 1 µM ([12]; read-out: %-inhibition AurA/TPX2): -6%; inhibition at 1 µM [13]: 0.535%; inhibition at 1 µM [14]: 2%; inhibition at 1 µM [15]: -2.39%; inhibition at 1 µM [16]: -6.33%; inhibition at 1 µM [17]: -10%; inhibition at 1 µM [18]: -2%
